# Measured values: patent US20230092890A1, “1, 3, 4-Oxadiazole derivative compounds as histone deacetylase 6 inhibitor, and the pharmaceutical composition comprising the same” (Chong Kun Dang Pharmaceutical Corp., priority 2019, published 2023)
# pIC50: −log10 of the molar value.
# Assays:
# HDAC6 human recombinant = biological target: T1, HDAC6 human recombinant (Homo sapiens, UniProt Q9UBN7); assay: HDAC enzyme activity inhibition (in vitro), HDAC6 assay; format: biochemical; conditions: samples at 0.1, 1, 10, 100 and 1000 nM; 37° C. 60 minutes; fluorescence Ex 390, Em 460; read-out: HDAC6 IC50
# T1 construct: purchased Calbiochem 382180
# T1 sequence (Q9UBN7 1-1215): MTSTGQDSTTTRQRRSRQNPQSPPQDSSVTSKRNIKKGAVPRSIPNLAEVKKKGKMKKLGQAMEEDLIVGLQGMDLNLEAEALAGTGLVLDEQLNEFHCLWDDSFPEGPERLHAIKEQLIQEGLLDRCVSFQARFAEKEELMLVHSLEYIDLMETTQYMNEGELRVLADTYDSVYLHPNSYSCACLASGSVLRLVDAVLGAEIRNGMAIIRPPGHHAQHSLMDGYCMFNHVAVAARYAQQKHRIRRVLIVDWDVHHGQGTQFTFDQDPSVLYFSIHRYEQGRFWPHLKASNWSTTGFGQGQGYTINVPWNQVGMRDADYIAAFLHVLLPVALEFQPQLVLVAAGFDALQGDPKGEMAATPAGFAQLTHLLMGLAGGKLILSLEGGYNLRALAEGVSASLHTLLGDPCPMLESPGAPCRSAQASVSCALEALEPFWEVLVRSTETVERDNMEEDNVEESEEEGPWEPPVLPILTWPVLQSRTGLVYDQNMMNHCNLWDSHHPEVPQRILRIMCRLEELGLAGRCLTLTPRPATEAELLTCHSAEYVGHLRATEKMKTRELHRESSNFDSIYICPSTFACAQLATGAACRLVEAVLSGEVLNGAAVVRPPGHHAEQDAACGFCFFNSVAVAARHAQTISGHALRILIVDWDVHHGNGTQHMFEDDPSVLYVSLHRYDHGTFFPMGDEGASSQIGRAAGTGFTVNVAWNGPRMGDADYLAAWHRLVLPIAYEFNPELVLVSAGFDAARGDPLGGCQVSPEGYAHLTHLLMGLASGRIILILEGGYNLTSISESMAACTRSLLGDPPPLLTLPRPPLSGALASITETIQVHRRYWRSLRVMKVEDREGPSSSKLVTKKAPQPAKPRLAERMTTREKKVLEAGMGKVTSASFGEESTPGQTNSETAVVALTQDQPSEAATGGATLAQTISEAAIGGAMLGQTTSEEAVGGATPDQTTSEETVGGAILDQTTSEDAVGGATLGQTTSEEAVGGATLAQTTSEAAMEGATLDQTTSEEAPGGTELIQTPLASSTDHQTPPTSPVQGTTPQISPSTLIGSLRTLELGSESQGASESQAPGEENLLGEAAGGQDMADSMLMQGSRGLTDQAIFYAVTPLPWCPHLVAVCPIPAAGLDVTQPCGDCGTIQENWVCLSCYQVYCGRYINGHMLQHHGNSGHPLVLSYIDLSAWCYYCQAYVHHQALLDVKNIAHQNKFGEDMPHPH
# How it was run: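 HDAC6 human recombinant enzyme with fluorimetric substrate; […]. Reaction 60 min at 37° C, then developer 30 min at 37° C; fluorescence read at Ex 390/Em 460.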
# HDAC1 = biological target: T2, HDAC1 (Homo sapiens, UniProt Q13547); assay: HDAC enzyme activity inhibition (in vitro), HDAC1 Fluorimetric Drug Discovery Assay Kit; format: biochemical; conditions: samples at 100, 1000 and 10000 nM; 37° C. 60 minutes; fluorescence Ex 390, Em 460; read-out: HDAC1 IC50
# T2 construct: purchased Enzolifesciences BML-AK511
# T2 sequence (Q13547 whole entry): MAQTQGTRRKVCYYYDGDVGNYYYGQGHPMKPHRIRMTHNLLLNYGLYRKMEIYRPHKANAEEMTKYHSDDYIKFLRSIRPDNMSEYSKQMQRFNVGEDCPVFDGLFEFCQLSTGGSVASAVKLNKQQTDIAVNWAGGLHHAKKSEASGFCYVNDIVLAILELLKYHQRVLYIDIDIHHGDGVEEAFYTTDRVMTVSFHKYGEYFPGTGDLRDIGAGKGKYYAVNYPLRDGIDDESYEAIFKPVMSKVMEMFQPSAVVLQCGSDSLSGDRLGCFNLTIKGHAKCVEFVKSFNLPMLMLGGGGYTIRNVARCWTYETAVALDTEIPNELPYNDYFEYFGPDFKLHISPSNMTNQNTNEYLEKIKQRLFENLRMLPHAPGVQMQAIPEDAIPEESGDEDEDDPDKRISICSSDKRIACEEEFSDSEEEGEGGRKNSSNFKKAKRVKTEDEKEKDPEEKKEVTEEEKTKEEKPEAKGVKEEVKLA
# How it was run: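 HDAC1 was tested at 100, 1000 and 10000 nM and recombinant human HDAC6 at 0.1, 1, 10, 100 and 1000 nM. Enzyme reactions ran 60 min at 37° C, then developer was added for 30 min at 37° C, and fluorescence (Ex 390, Em 460) was read.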
SMILES,pIC50 (HDAC6 human recombinant),pIC50 (HDAC1)
"O=c1n(Cc2ccc(-c3nnc(C(F)F)o3)cc2)c2cc(F)c(F)cc2n1C1CCN(C2COC2)CC1 [Compound 96, 1-(4-(5-(difluoromethyl)-1,3,4-oxadiazole-2-yl)benzyl)-5,6-difluoro-3-(1-(oxetan-3-yl)piperidine-4-yl)-1,3-dihydro-2H-benzo[d]imidazole-2-one]",7.44,< 5.00
"CN1CCC(Cn2c(=O)n(Cc3ccc(-c4nnc(C(F)F)o4)cn3)c3ccccc32)CC1 [Compound 10, 1-((5-(5-(difluoromethyl)-1,3,4-oxadiazole-2-yl)pyridine-2-yl)methyl)-3-((1-methylpiperidine-4-yl)methyl)-1,3-dihydro-2H-benzo[d]imidazole-2-one]",6.65,< 5.00
"O=c1n(Cc2ccc(-c3nnc(C(F)F)o3)cn2)c2cc(C(F)(F)F)ccc2n1C1CCN(C2COC2)CC1 [Compound 90, 3-((5-(5-(difluoromethyl)-1,3,4-oxadiazole-2-yl)pyridine-2-yl)methyl)-1-(1-(oxetan-3-yl)piperidine-4-yl)-5-(trifluoromethyl)-1,3-dihydro-2H-benzo[d]imidazole-2-one]",7.51,< 5.00
"CN1CCC(n2c(=O)n(Cc3ccc(-c4nnc(C(F)F)o4)cc3F)c3cc(F)c(Br)cc32)CC1 [Compound 113, 5-bromo-1-(4-(5-(difluoromethyl)-1,3,4-oxadiazole-2-yl)-2-fluorobenzyl)-6-fluoro-3-(1-methylpiperidine-4-yl)-1,3-dihydro-2H-benzo[d]imidazole-2-one]",7.19,< 5.00
"CN1CCC(n2c(=O)n(Cc3ccc(-c4nnc(C(F)F)o4)cc3F)c3ccc(-c4ccco4)cc32)CC1 [Compound 140, 1-(4-(5-(difluoromethyl)-1,3,4-oxadiazole-2-yl)-2-fluorobenzyl)-5-(furan-2-yl)-3-(1-methylpiperidine-4-yl)-1,3-dihydro-2H-benzo[d]imidazole-2-one]",7.27,< 5.00
"CN1CCC(n2c(=O)n(Cc3ccc(-c4nnc(C(F)F)o4)cn3)c3ccc(F)cc32)CC1 [Compound 43, 1-((5-(5-(difluoromethyl)-1,3,4-oxadiazole-2-yl)pyridine-2-yl)methyl)-5-fluoro-3-(1-methylpiperidine-4-yl)-1,3-dihydro-2H-benzo[d]imidazole-2-one]",6.92,< 5.00
"O=c1n(Cc2ccc(-c3nnc(C(F)F)o3)cn2)c2ccccc2n1C1CC2(COC2)C1 [Compound 28, 1-((5-(5-(difluoromethyl)-1,3,4-oxadiazole-2-yl)pyridine-2-yl)methyl)-3-(2-oxaspiro[3.3]heptane-6-yl)-1,3-dihydro-2H-benzo[d]imidazole-2-one]",7.19,< 5.00
"CN1CCC(N2Cc3ccccc3N(Cc3ccc(-c4nnc(C(F)F)o4)cn3)C2=O)CC1 [Compound 8, 1-((5-(5-(difluoromethyl)-1,3,4-oxadiazole-2-yl)pyridine-2-yl)methyl)-3-(1-methylpiperidine-4-yl)-3,4-dihydroquinazoline-2(1H)-one]",6.77,< 5.00
"CC(C)N1CCC(n2c(=O)n(Cc3ccc(-c4nnc(C(F)F)o4)cn3)c3ccc(F)cc32)CC1 [Compound 46, 1-((5-(5-(difluoromethyl)-1,3,4-oxadiazole-2-yl)pyridine-2-yl)methyl)-5-fluoro-3-(1-isopropylpiperidine-4-yl)-1,3-dihydro-2H-benzo[d]imidazole-2-one]",6.99,< 5.00
"CN1CCC(n2c(=O)n(Cc3ccc(-c4nnc(C(F)F)o4)cc3)c3cc(Br)ccc32)CC1 [Compound 126, 5-bromo-3-(4-(5-(difluoromethyl)-1,3,4-oxadiazole-2-yl)benzyl)-1-(1-methylpiperidine-4-yl)-1,3-dihydro-2H-benzo[d]imidazole-2-one]",7.54,< 5.00
"CN1CCC(n2c(=O)n(Cc3ccc(-c4nnc(C(F)F)o4)cn3)c3cc(Br)ccc32)CC1 [Compound 141, 5-bromo-3-((5-(5-(difluoromethyl)-1,3,4-oxadiazole-2-yl)pyridine-2-yl)methyl)-1-(1-methylpiperidine-4-yl)-1,3-dihydro-2H-benzo[d]imidazole-2-one]",7.92,< 5.00
"CC(=O)N1CCC(n2c(=O)n(Cc3ccc(-c4nnc(C(F)F)o4)cc3F)c3cc(C(F)(F)F)ccc32)CC1 [Compound 180, 1-(1-acetylpiperidine-4-yl)-3-(4-(5-(difluoromethyl)-1,3,4-oxadiazole-2-yl)-2-fluorobenzyl)-5-(trifluoromethyl)-1,3-dihydro-2H-benzo[d]imidazole-2-one]",7.42,< 5.00

# Now from value to compound:
pIC50 (HDAC6 human recombinant),pIC50 (HDAC1),SMILES
7.42,< 5.00,"O=c1sc2cc(-c3ccc(CN4CCOCC4)nc3)ccc2n1Cc1ccc(-c2nnc(C(F)F)o2)cn1 [Compound 333, 3-((5-(5-(difluoromethyl)-1,3,4-oxadiazole-2-yl)pyridine-2-yl)methyl)-6-(6-(morpholinomethyl)pyridine-3-yl)benzo[d]thiazole-2(3H)-one]"
7.70,< 5.00,"CC(=O)N1CCC(n2c(=O)n(Cc3ccc(-c4nnc(C(F)F)o4)cn3)c3cc(Cl)ccc32)CC1 [Compound 215, 1-(1-acetylpiperidine-4-yl)-5-chloro-3-((5-(5-(difluoromethyl)-1,3,4-oxadiazole-2-yl)pyridine-2-yl)methyl)-1,3-dihydro-2H-benzo[d]imidazole-2-one]"
7.19,< 5.00,"CN1CCC(c2cc3oc(=O)n(Cc4ccc(-c5nnc(C(F)F)o5)cn4)c3cc2F)CC1 [Compound 334, 3-((5-(5-(difluoromethyl)-1,3,4-oxadiazole-2-yl)pyridine-2-yl)methyl)-5-fluoro-6-(1-methylpiperidine-4-yl)benzo[d]oxazole-2(3H)-one]"
7.96,< 5.00,"Cn1c(=O)n(Cc2ccc(-c3nnc(C(F)F)o3)cn2)c2cc(F)c(-c3ccc(S(C)(=O)=O)cc3)cc21 [Compound 225, 1-((5-(5-(difluoromethyl)-1,3,4-oxadiazole-2-yl)pyridine-2-yl)methyl)-6-fluoro-3-methy 1-5-(4-(methylsulfonyl)phenyl)-1,3-dihydro-2H-benzo[d]imidazole-2-one]"
6.71,< 5.00,"CN1CCC(n2c(=O)n(Cc3ccc(-c4nnc(C(F)F)o4)cn3)c3ccc(C4CCN(S(C)(=O)=O)CC4)cc32)CC1 [Compound 198, 1-((5-(5-(difluoromethyl)-1,3,4-oxadiazole-2-yl)pyridine-2-yl)methyl)-3-(1-methylpiperidine-4-yl)-5-(1-(methylsulfonyl)piperidine-4-yl)-1,3-dihydro-2H-benzo[d]imidazole-2-one]"
7.34,< 5.00,"O=c1n(Cc2ccc(-c3nnc(C(F)F)o3)cc2)c2cc(F)ccc2n1C1CCS(=O)(=O)CC1 [Compound 190, 3-(4-(5-(difluoromethyl)-1,3,4-oxadiazole-2-yl)benzyl)-1-(1,1-dioxydotetrahydro-2H-thiopyran-4-yl)-5-fluoro-1,3-dihydro-2H-benzo[d]imidazole-2-one]"
7.46,< 5.00,"O=c1n(Cc2ccc(-c3nnc(C(F)F)o3)cn2)c2cc(F)c(N3CCN(Cc4cn[nH]c4)CC3)cc2n1C1COC1 [Compound 323, 5-(4-((1H-pyrazole-4-yl)methyl)piperazine-1-yl)-1-((5-(5-(difluoromethyl)-1,3,4-oxadiazole-2-yl)pyridine-2-yl)methyl)-6-fluoro-3-(oxetan-3-yl)-1,3-dihydro-2H-benzo[d]imidazole-2-one]"
